Converted amounts (≈) assume the structure as drawn. Like-named read-outs stand apart in the source and are kept apart here.
Legend:
[1] = system: Corynebacterium spp. HM-784; settings: cited from earlier work
[2] = system: Fusobacterium nucleatum HM-992; settings: cited from earlier work
[3] = system: Veillonella sp. HM-49; settings: cited from earlier work
[4] = system: C. difficile ATCC 43255; assay: Determination of minimal-inhibitory concentrations (microdilution), C. difficile ATCC 43255; type: cell-based, Clostridioides difficile; settings: Clostridioides difficile
[5] = system: Lactobacillus gasseri HM-644; settings: cited from earlier work
[6] = system: Bacteroides fragilis HM-709; settings: cited from earlier work
[7] = system: C. difficile ATCC 43255; settings: cited from earlier work
[8] = system: Bifidobacterium longum HM-846; settings: cited from earlier work
[9] = system: Eubacterium sp. HM-178; settings: cited from earlier work
[10] = system: THP-1 cells; assay: Lactate dehydrogenase (LDH) cytotoxicity assay; type: cell-based, human; settings: Homo sapiens
[11] = system: S. aureus; assay: MIC against S. aureus strains; type: cell-based
[12] = system: Lactobacillus reuteri HM-102; settings: cited from earlier work
[13] = system: E. faecium; assay: MIC against E. faecium strains; type: cell-based
[14] = system: E. aerogenes ATCC35029; assay: MIC against E. aerogenes; type: cell-based; settings: Klebsiella aerogenes; E. aerogenes ATCC35029; read-out: MIC
[15] = system: S. haemolyticus ATCC 29970; assay: MIC against S. haemolyticus; type: cell-based; settings: Staphylococcus haemolyticus, ATCC29970
[16] = system: Gram-negative bacteria; type: cell-based
[17] = system: E. coli ATCC25922; assay: MIC against E. coli; type: cell-based; settings: Escherichia coli; E. coli ATCC25922; read-out: MIC
[18] = system: C. difficile ATCC 43255; assay: Minimal-bactericidal concentration (MBC); type: cell-based, Clostridioides difficile; settings: MBC/MIC≤4 indicates bactericidal
[19] = system: A. baumanii ATCC17961; assay: MIC against A. baumanii; type: cell-based; settings: Acinetobacter baumannii; A. baumanii ATCC17961; read-out: MIC
[20] = ATCC43255, 24 h, C. difficile ATCC 43255, 24 h, read-out: MIC (μg/mL) 24 h
[21] = ATCC43255, Table 1, strain ATCC 43255, read-out: MIC C. difficile
[22] = C. difficile ATCC 43255, earlier publication
[23] = Staphylococcus aureus, ATCC29213, 24 h, S. aureus ATCC 29213, 24 h, read-out: MIC (μg/mL) 24 h
[24] = THP-1, 24 h, read-out: LDH (IC50)
[25] = Enterococcus faecium, read-out: MIC
[26] = S. haemolyticus ATCC 29970, read-out: MIC
[27] = Staphylococcus aureus, S. aureus VRS1, read-out: MIC

For `FC(F)(F)c1ccc(Oc2ccc(-c3noc(-c4ccc5[nH]ccc5c4)n3)cc2)cc1` [Compound 1], the MIC [1] is given as 2 µg/mL (≈ 4.75 µM), the MIC [2] is given as 1 µg/mL (≈ 2.37 µM) and the MIC [3] is given as >128 µg/mL. The MIC [4, 20] was 2 µg/mL (≈ 4.75 µM), the MIC [4, 21] was 4 µg/mL (≈ 9.49 µM) and the MIC [5] was >128 µg/mL. For the same compound, the MIC [6] was 4 µg/mL (≈ 9.49 µM), the MIC ([7]; C. difficile ATCC43255) was 2 µg/mL (≈ 4.75 µM) and the MIC [7, 22] was 4 µg/mL (≈ 9.49 µM). The MIC ([7]; strain ATCC43255) was 2 µg/mL (≈ 4.75 µM), the MIC [8] was 0.25 µg/mL (≈ 0.593 µM) and the MIC [9] was 2 µg/mL (≈ 4.75 µM). The IC50 ([10]; THP-1 cells, 24 h, read-out: LDH (IC50)) was 69 ± 6 µg/mL (≈ 164 µM), the IC50 ([10]; THP-1 cells, read-out: toxicity IC50 (LDH assay)) was > 50 µg/mL and the MIC [11, 23] was 4 µg/mL (≈ 9.49 µM). For the same compound, the MIC [12] was >128 µg/mL.

In the case of `Oc1ccc(-c2nc(-c3ccc(OC4CCCC4)cc3)no2)cc1` [Compound 2], the MIC [1] is given as 0.5 µg/mL (≈ 1.55 µM), the MIC [2] is given as 2 µg/mL (≈ 6.2 µM) and the MIC [3] is given as >128 µg/mL. For the same compound, the MIC [4, 20] was 2 µg/mL (≈ 6.2 µM), the MIC [4, 21] was 2 µg/mL (≈ 6.2 µM) and the MIC [5] was >128 µg/mL. The MIC [6] was 2 µg/mL (≈ 6.2 µM), the MIC ([7]; C. difficile ATCC43255) was 2 µg/mL (≈ 6.2 µM) and the MIC [7, 22] was 2 µg/mL (≈ 6.2 µM). For the same compound, the MIC ([7]; strain ATCC43255) was 2 µg/mL (≈ 6.2 µM), the MIC [8] was 1 µg/mL (≈ 3.1 µM) and the MIC [9] was 4 µg/mL (≈ 12.4 µM). The IC50 [10, 24] was 18 ± 1 µg/mL (≈ 55.8 µM), the MIC [11, 23] was 2 µg/mL (≈ 6.2 µM) and the MIC [12] was >128 µg/mL.

In the case of `O=[N+]([O-])c1cnc(-c2nc(-c3ccc(OC4CCCC4)cc3)no2)[nH]1` [Compound 57, 3-(4-(Cyclopentyloxy)phenyl)-5-(4-nitro-1H-imidazol-2-yl)-1,2,4-oxadiazole], the MIC ([13]; E. faecium 106 (Van R)) is reported as 128 µg/mL (≈ 375 µM), the MIC [13, 25] is reported as 128 µg/mL (≈ 375 µM) and the MIC [14] is reported as > 128 µg/mL. The MIC [15, 26] was 32 µg/mL (≈ 93.8 µM), the MIC [4, 20] was 0.125 µg/mL (≈ 0.366 µM) and the MIC ([4]; ATCC43255, C. difficile ATCC43255, read-out: ATCC43255 MIC) was 0.25 µg/mL (≈ 0.732 µM). It also gave an MIC ([4]; ATCC43255, C. difficile ATCC43255, read-out: MIC) of 0.25 µg/mL (≈ 0.732 µM), an MIC [4, 21] of 0.25 µg/mL (≈ 0.732 µM) and an MIC ([4]; ATCC43255, strain ATCC43255, read-out: MIC) of 0.25 µg/mL (≈ 0.732 µM). For the same compound, the IC50 [10, 24] was > 128 µg/mL, the IC50 ([10]; THP-1, read-out: toxicity IC50 (LDH assay)) was > 50 µg/mL and the “activity against Gram-negative organisms” value [16] was “no activity”. For the same compound, the MIC [11, 27] was 64 µg/mL (≈ 188 µM), the MIC ([11]; Staphylococcus aureus, S. aureus VRS2, read-out: MIC) was 32 µg/mL (≈ 93.8 µM) and the MIC [17] was > 128 µg/mL. For the same compound, the bactericidal or bacteriostatic [18] was “bactericidal” and the MIC [19] was > 128 µg/mL.

In the case of `CCc1c(Cl)c(O)c(Cl)c(O)c1C(=O)O[C@H]1[C@H](O)[C@H](OC)[C@H](OC/C2=C\C=C\C[C@H](O)/C(C)=C/[C@H](CC)[C@@H](O[C@@H]3OC(C)(C)[C@@H](OC(=O)C(C)C)[C@H](O)[C@@H]3O)/C(C)=C/C(C)=C/C[C@@H]([C@@H](C)O)OC2=O)O[C@@H]1C` [FDX, fidaxomicin], the MIC [1] is given as <0.06 µg/mL, the MIC ([13]; E. faecium 106 (Van R)) is given as >16 µg/mL and the MIC [13, 25] is given as > 16 µg/mL. For the same compound, the MIC [14] was > 128 µg/mL, the MIC [2] was <0.06 µg/mL and the MIC [15, 26] was 16 µg/mL (≈ 15.1 µM). For the same compound, the MIC [3] was 8 µg/mL (≈ 7.56 µM), the MIC [5] was 2 µg/mL (≈ 1.89 µM) and the MIC [6] was >32 µg/mL. For the same compound, the MIC ([7]; C. difficile ATCC43255) was 0.06 µg/mL (≈ 0.0567 µM), the MIC ([7]; strain ATCC43255) was 0.06 µg/mL (≈ 0.0567 µM) and the MIC [8] was <0.01 µg/mL. For the same compound, the MIC [9] was 16 µg/mL (≈ 15.1 µM), the “activity against Gram-negative organisms” value [16] was “no activity” and the MIC [11, 27] was 64 µg/mL (≈ 60.5 µM). The MIC [12] was >32 µg/mL, the MIC [17] was > 128 µg/mL and the bactericidal or bacteriostatic [18] was “bactericidal”. The MIC [19] was > 128 µg/mL.

In the case of `Cc1ncc([N+](=O)[O-])n1CCO` [MTZ, metronidazole], the MIC [1] is given as >32 µg/mL, the MIC ([13]; E. faecium 106 (Van R)) is given as >16 µg/mL and the MIC ([13]; Enterococcus faecium, NCTC7171, E. faecium NCTC 7171, read-out: MIC) is given as > 128 µg/mL. For the same compound, the MIC [13, 25] was > 16 µg/mL, the MIC [14] was > 128 µg/mL and the MIC [15] was > 256 µg/mL. For the same compound, the MIC [5] was >32 µg/mL, the MIC [8] was 0.05 µg/mL (≈ 0.292 µM) and the “activity against Gram-negative organisms” value [16] was “no activity”. For the same compound, the MIC ([11]; S. aureus VRS2) was >256 µg/mL, the MIC ([11]; Staphylococcus aureus) was > 256 µg/mL and the MIC ([11]; Staphylococcus aureus, ATCC27660) was > 256 µg/mL. For the same compound, the MIC ([11]; Staphylococcus aureus, ATCC29213) was > 256 µg/mL, the MIC [12] was >32 µg/mL and the MIC [17] was > 128 µg/mL. For the same compound, the bactericidal or bacteriostatic [18] was “bactericidal” and the MIC [19] was > 128 µg/mL.
